The target in one data set is hERG ion channel (Homo sapiens, UniProt Q12809). The data set is described as follows: hERG activity (process of Bridgland-Taylor et al.). The class given is cell-based. As to the method:
hERG activity was assessed using the process described by Bridgland-Taylor, M. H., et al, J. Pharm. Tox. Methods 54 (2006) 189-199.

A further data set deals with T1, human mGluR2 (Homo sapiens, UniProt Q14416).
T1 construct: expressed in transfected cells; host or cells: CHO cells, stably transfected; membranes
Kind of data set: [35S]-GTPγS binding assay, membranes from CHO cells stably expressing human mGluR2. The note with it: for Emax: 0.5 h, Emax relative to the maximum glutamate effect, 1 μM glutamate, read-out: Hu GTPgS Median Top Effect; for pEC50: allosteric activator activity in presence of 1 μM glutamate, CHO membranes, human mGluR2, read-out: Hu GTPgS EC50. In kind it is biochemical. As to the method:
A [^35S]-GTPγS binding assay was used to functionally assay mGluR2 receptor activation. The allosteric activator activity of compounds at the human mGluR2 receptor were measured using a [^35S]-GTPγS binding assay with membranes prepared from CHO cells that stably express the human mGluR2. The assay is based upon the principle that agonists bind to G-protein coupled receptors to stimulate GDP-GTP exchange at the G-protein. Since [^35S]-GTPγS is a non-hydrolyzable GTP analog, it can be used to provide an index of GDP-GTP exchange and, thus, receptor activation. The GTPγS binding assay therefore provides a quantitative measure of receptor activation.
Membranes were prepared from CHO cells stably transfected with human mGluR2. Membranes (30 μg protein) were incubated with test compound (3 nM to 300 μM) for 15 minutes at room temperature prior to the addition of 1 μM glutamate, and incubated for 30 min at 30° C. in 500 μl assay buffer (20 mM HEPES, 100 mM NaCl, 10 mM MgCl2), containing 30 μM GDP and 0.1 nM [^35S]-GTPγS (1250 Ci/mmol). Reactions were carried out in triplicate in 2 ml polypropylene 96-well plates. Reactions were terminated by vacuum filtration using a Packard 96-well harvester and Unifilter-96, GF/B filter microplates. The filter plates were washed 4×1.5 ml with ice-cold wash buffer (10 mM sodium phosphate buffer, pH 7.4). The filter plates were dried and 35 μl of scintillation fluid (Microscint 20) was added to each well. The amount of radioactivity bound was determined by counting plates on the Packard TopCount. Data was analyzed using GraphPad Prism, and EC50 and Emax values (relative to the maximum glutamate effect) were calculated using non-linear regression.

Data set [1] can be described thus: Solubility in pH 7.4 phosphate buffer. The note with it: aqueous buffer, thermodynamic from solid, equilibration 24 h at 25° C., HPLC-UV and LC-MSMS. In kind it is physicochemical. The method, then:
Solubility was determined in pH 7.4 phosphate buffer after equilibration for 24 h at 25° C. and HPLC-UV and LC-MSMS were used for quantitation.

pEC50, pIC50: −log10 of the molar value. Converted amounts (≈) assume the structure as drawn.

Sequence of hERG ion channel (Q12809 whole entry): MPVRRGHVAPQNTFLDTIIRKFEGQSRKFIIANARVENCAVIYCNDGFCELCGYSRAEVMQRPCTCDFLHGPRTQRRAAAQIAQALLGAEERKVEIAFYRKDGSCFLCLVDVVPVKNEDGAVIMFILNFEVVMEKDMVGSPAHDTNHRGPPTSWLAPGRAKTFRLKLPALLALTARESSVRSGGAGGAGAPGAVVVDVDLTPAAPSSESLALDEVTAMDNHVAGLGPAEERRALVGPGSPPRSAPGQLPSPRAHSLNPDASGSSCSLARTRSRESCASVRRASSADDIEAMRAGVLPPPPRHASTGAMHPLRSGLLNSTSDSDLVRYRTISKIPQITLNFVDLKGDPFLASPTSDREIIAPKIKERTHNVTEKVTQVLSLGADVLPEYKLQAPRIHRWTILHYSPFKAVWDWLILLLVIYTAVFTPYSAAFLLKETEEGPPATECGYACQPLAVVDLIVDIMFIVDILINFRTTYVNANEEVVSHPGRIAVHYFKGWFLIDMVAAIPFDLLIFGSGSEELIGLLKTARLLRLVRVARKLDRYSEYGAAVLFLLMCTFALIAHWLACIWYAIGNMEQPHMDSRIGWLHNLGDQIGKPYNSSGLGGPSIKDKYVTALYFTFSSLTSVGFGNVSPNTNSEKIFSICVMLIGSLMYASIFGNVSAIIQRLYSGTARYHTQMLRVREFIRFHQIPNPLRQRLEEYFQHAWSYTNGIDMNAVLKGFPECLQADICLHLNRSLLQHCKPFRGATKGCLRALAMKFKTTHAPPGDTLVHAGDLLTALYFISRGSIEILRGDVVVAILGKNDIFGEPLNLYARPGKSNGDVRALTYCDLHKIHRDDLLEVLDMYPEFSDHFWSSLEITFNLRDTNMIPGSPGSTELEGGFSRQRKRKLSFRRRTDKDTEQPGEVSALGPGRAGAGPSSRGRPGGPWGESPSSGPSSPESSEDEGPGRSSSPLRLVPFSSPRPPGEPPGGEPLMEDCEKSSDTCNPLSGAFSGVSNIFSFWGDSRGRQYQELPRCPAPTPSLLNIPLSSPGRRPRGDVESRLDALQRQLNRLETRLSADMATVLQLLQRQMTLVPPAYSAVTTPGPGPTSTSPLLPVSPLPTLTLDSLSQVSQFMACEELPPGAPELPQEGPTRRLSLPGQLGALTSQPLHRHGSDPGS
T1 sequence (Q14416 19-872): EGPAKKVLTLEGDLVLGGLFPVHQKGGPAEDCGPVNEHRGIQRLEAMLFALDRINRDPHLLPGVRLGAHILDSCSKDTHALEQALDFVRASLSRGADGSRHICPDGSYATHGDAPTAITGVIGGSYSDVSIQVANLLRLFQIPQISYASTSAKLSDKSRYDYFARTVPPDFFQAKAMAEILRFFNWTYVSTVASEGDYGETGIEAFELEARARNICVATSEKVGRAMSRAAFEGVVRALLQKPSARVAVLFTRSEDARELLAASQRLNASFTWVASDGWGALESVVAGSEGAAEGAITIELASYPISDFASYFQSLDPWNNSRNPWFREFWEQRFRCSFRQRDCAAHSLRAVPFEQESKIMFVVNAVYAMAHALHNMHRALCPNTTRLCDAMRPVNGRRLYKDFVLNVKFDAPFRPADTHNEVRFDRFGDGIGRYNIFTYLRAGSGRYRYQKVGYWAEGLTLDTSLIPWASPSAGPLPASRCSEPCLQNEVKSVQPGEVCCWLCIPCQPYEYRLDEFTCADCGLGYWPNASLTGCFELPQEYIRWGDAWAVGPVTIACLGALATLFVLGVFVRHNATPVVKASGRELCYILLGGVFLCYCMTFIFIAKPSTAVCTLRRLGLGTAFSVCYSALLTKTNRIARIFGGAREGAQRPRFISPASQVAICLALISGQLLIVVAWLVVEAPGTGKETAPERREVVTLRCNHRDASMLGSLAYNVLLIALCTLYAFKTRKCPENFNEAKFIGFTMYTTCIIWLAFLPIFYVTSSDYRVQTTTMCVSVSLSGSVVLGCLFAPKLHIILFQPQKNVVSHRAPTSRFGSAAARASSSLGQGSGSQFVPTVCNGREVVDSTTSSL

`Cc1cc(-c2cc(C(N)=O)no2)cc2c1C(=O)N([C@@H](C)C1CC1)C2` [Example 4, 5-[2-((S)-1-Cyclopropyl-ethyl)-7-methyl-1-oxo-2,3-dihydro-1H-isoindol-5-yl]-isoxazole-3-carboxylic acid amide]: the negative-log IC50 (pIC50) at hERG ion channel is less than 4.48. Also, at human mGluR2, the Emax is 130% and the pEC50 was 6.82. Moreover, the solubility at 24 h in data set [1] was 9.53 µM (≈ 3.1 µg/mL).

In turn, `C[C@@H](C1CC1)N1Cc2cc(-c3cc(C(=O)N4CCOCC4)no3)cc(Cl)c2C1=O` [Example 20, 7-Chloro-2-((S)-1-cyclopropyl-ethyl)-5-[3-(morpholine-4-carbonyl)-isoxazol-5-yl]-2,3-dihydro-isoindol-1-one] had a pIC50 at hERG ion channel of less than 4.48. In addition, on human mGluR2, the Emax came to 122% and the pEC50 is 7.07. Further, the solubility at 24 h in data set [1] was 5.74 µM (≈ 2.39 µg/mL).

`C[C@@H](C1CC1)N1Cc2cc(-c3cc(C(N)=O)no3)cc(Cl)c2C1=O` [Example 7, 5-[7-Chloro-2-((S)-1-cyclopropyl-ethyl)-1-oxo-2,3-dihydro-1H-isoindol-5-yl]-isoxazole-3-carboxylic acid amide] gave a pIC50 against hERG ion channel of less than 4.48. At human mGluR2, the Emax was 139% and the pEC50 is 6.64. Also, the solubility at 24 h in data set [1] came out at 16.6 µM (≈ 5.74 µg/mL).

In the case of `Cc1cc(-c2cc(C(=O)N(C)CCO)no2)cc2c1C(=O)N([C@@H](C)C1CC1)C2` [Example 13, 5-[2-((S)-1-Cyclopropyl-ethyl)-7-methyl-1-oxo-2,3-dihydro-1H-isoindol-5-yl]-isoxazole-3-carboxylic acid (2-hydroxy-ethyl)-methyl-amide], the negative-log IC50 (pIC50) at hERG ion channel was less than 4.48. For the same molecule, on human mGluR2, the Emax came out at 78% and the pEC50 is 6.32. Besides, the solubility at 24 h in data set [1] is 153 µM (≈ 58.7 µg/mL).

At hERG ion channel, `CC(C)N(C)C(=O)c1cc(-c2cc(Cl)c3c(c2)CN([C@@H](C)C2CC2)C3=O)on1` [Example 18, 5-[7-Chloro-2-((S)-1-cyclopropyl-ethyl)-1-oxo-2,3-dihydro-1H-isoindol-5-yl]-isoxazole-3-carboxylic acid isopropyl-methyl-amide] had a pIC50 of less than 4.48. Also, on human mGluR2, the Emax was 109% and the pEC50 is 7.25. Besides, the concentration in solution in data set [1] (solubility at 24 h) came to 4.65 µM (≈ 1.87 µg/mL).

As for `C[C@H](N1Cc2cc(-c3cc(C(=O)N4CCOCC4)no3)cc(Cl)c2C1=O)C(F)(F)F` [Example 21, 7-Chloro-5-[3-(morpholine-4-carbonyl)-isoxazol-5-yl]-2-((S)-2,2,2-trifluoro-1-methyl-ethyl)-2,3-dihydro-isoindol-1-one], the pIC50 on hERG ion channel is less than 4.48. In addition, on human mGluR2, the Emax turned out to be 106% and the pEC50 was 6.29. In data set [1], this molecule showed a solubility at 24 h of 9.32 µM (≈ 4.14 µg/mL).

In turn, `Cc1cc(-c2cc(C(=O)N(C)C)no2)cc2c1C(=O)N(C(C)C)C2` [Example 5, 5-(2-Isopropyl-7-methyl-1-oxo-2,3-dihydro-1H-isoindol-5-yl)-isoxazole-3-carboxylic acid dimethylamide] showed a pIC50 on hERG ion channel of less than 4.48. For the same molecule, on human mGluR2, the Emax was found to be 67% and the pEC50 was 6.37. In data set [1], the concentration in solution (solubility at 24 h) was 19.2 µM (≈ 6.29 µg/mL).

`Cc1cc(-c2cc(C(=O)N(C)C(C)C)no2)cc2c1C(=O)N([C@@H](C)C1CC1)C2` [Example 12, 5-[2-((S)-1-Cyclopropyl-ethyl)-7-methyl-1-oxo-2,3-dihydro-1H-isoindol-5-yl]-isoxazole-3-carboxylic acid isopropyl-methyl-amide] gave a pIC50 at hERG ion channel of less than 4.48. At human mGluR2, the Emax stood at 100% and the pEC50 is 7.44. The solubility at 24 h in data set [1] stood at 11.2 µM (≈ 4.27 µg/mL).

Molecule `CC(C)N1Cc2cc(-c3cc(C(=O)N4CCOCC4)no3)cc(Cl)c2C1=O` [Example 15, 7-Chloro-2-isopropyl-5-[3-(morpholine-4-carbonyl)-isoxazol-5-yl]-2,3-dihydro-isoindol-1-one] gave a negative-log IC50 (pIC50) on hERG ion channel of less than 4.48. For the same molecule, at human mGluR2, the Emax was 100% and the pEC50 is 6.28. Further, the concentration in solution in data set [1] (solubility at 24 h) was 66.3 µM (≈ 25.8 µg/mL).
